Key:
Test in all cases: relative viability (nuclei count vs DMSO), 5 days (fraction); higher = more cells survive
Imatinib + Alpelisib = compound: Cc1ccc(NC(=O)c2ccc(CN3CCN(C)CC3)cc2)cc1Nc1nccc(-c2cccnc2)n1 [Imatinib] + Cc1nc(NC(=O)N2CCC[C@H]2C(N)=O)sc1-c1ccnc(C(C)(C)C(F)(F)F)c1 [Alpelisib] (partner 2 µM)
Summary of the method: (§1)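 For relative viability, nuclei counts in treated wells were divided by those in vehicle wells. Lung cancer cell lines had been pin-tool dosed in 1536-well plates the day after seeding and cultured for 5 days, then fixed and stained in one step (final 0.05% Triton X-100, 1% formaldehyde, 1 ug/ml Hoechst) and imaged at 4×. Doses were one drug alone or a fixed anchor-drug dose plus five library-drug doses (not always all listed) in √10 steps, and values are duplicate-plate medians.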

Imatinib + Luminespib = compound: Cc1ccc(NC(=O)c2ccc(CN3CCN(C)CC3)cc2)cc1Nc1nccc(-c2cccnc2)n1 [Imatinib] + CCNC(=O)c1noc(-c2cc(C(C)C)c(O)cc2O)c1-c1ccc(CN2CCOCC2)cc1 [Luminespib] (partner 0.01 µM)
Summary of the method: as §1

Imatinib + Lapatinib = compound: Cc1ccc(NC(=O)c2ccc(CN3CCN(C)CC3)cc2)cc1Nc1nccc(-c2cccnc2)n1 [Imatinib] + CS(=O)(=O)CCNCc1ccc(-c2ccc3ncnc(Nc4ccc(OCc5cccc(F)c5)c(Cl)c4)c3c2)o1 [Lapatinib] (partner 2 µM)
Summary of the method: as §1

Imatinib + Navitoclax = compound: Cc1ccc(NC(=O)c2ccc(CN3CCN(C)CC3)cc2)cc1Nc1nccc(-c2cccnc2)n1 [Imatinib] + CC1(C)CCC(c2ccc(Cl)cc2)=C(CN2CCN(c3ccc(C(=O)NS(=O)(=O)c4ccc(N[C@H](CCN5CCOCC5)CSc5ccccc5)c(S(=O)(=O)C(F)(F)F)c4)cc3)CC2)C1 [Navitoclax] (partner 0.5 µM)
Summary of the method: as §1

NCI-H661
relative viability (Imatinib + Alpelisib; first compound 0.02 µM): 0.689
relative viability (Imatinib + Alpelisib; first compound 0.06325 µM): 0.406
relative viability (Imatinib + Alpelisib; first compound 0.2 µM): 0.546
relative viability (Imatinib + Alpelisib; first compound 0.6325 µM): 0.68
relative viability (Imatinib + Alpelisib; first compound 2 µM): 0.521
relative viability (Imatinib + Luminespib; first compound 0.02 µM): 0.931
relative viability (Imatinib + Luminespib; first compound 0.06325 µM): 1.03
relative viability (Imatinib + Luminespib; first compound 0.2 µM): 1.01
relative viability (Imatinib + Luminespib; first compound 0.6325 µM): 0.934
relative viability (Imatinib + Luminespib; first compound 2 µM): 0.874
relative viability (Imatinib + Lapatinib; first compound 0.02 µM): 0.434
relative viability (Imatinib + Lapatinib; first compound 0.06325 µM): 0.296
relative viability (Imatinib + Lapatinib; first compound 0.2 µM): 0.546
relative viability (Imatinib + Lapatinib; first compound 0.6325 µM): 0.19
relative viability (Imatinib + Lapatinib; first compound 2 µM): 0.481

NCI-H838
relative viability (Imatinib + Alpelisib; first compound 0.02 µM): 1.02
relative viability (Imatinib + Alpelisib; first compound 0.06325 µM): 1.06
relative viability (Imatinib + Alpelisib; first compound 0.2 µM): 1.12
relative viability (Imatinib + Alpelisib; first compound 0.6325 µM): 1.06
relative viability (Imatinib + Alpelisib; first compound 2 µM): 1.04
relative viability (Imatinib + Luminespib; first compound 0.02 µM): 0.33
relative viability (Imatinib + Luminespib; first compound 0.06325 µM): 0.3
relative viability (Imatinib + Luminespib; first compound 0.2 µM): 0.363
relative viability (Imatinib + Luminespib; first compound 0.6325 µM): 0.275
relative viability (Imatinib + Luminespib; first compound 2 µM): 0.266
relative viability (Imatinib + Navitoclax; first compound 0.02 µM): 1.34
relative viability (Imatinib + Navitoclax; first compound 0.06325 µM): 1.54
relative viability (Imatinib + Navitoclax; first compound 0.2 µM): 1.34
relative viability (Imatinib + Navitoclax; first compound 0.6325 µM): 1.14
relative viability (Imatinib + Navitoclax; first compound 2 µM): 1.28

NCI-H1299
relative viability (Imatinib + Alpelisib; first compound 0.02 µM): 1.16
relative viability (Imatinib + Alpelisib; first compound 0.06325 µM): 1.1
relative viability (Imatinib + Alpelisib; first compound 0.2 µM): 1.14
relative viability (Imatinib + Alpelisib; first compound 0.6325 µM): 1.12
relative viability (Imatinib + Alpelisib; first compound 2 µM): 0.983
relative viability (Imatinib + Navitoclax; first compound 0.02 µM): 1.02
relative viability (Imatinib + Navitoclax; first compound 0.06325 µM): 1.11
relative viability (Imatinib + Navitoclax; first compound 0.2 µM): 1.08
relative viability (Imatinib + Navitoclax; first compound 0.6325 µM): 1.01
relative viability (Imatinib + Navitoclax; first compound 2 µM): 1.04
relative viability (Imatinib + Lapatinib; first compound 0.02 µM): 0.999
relative viability (Imatinib + Lapatinib; first compound 0.06325 µM): 1
relative viability (Imatinib + Lapatinib; first compound 0.2 µM): 0.988
relative viability (Imatinib + Lapatinib; first compound 0.6325 µM): 0.956
relative viability (Imatinib + Lapatinib; first compound 2 µM): 0.988

NCI-H1355
relative viability (Imatinib + Alpelisib; first compound 0.02 µM): 0.855
relative viability (Imatinib + Alpelisib; first compound 0.2 µM): 0.834
relative viability (Imatinib + Alpelisib; first compound 0.6325 µM): 0.889
relative viability (Imatinib + Alpelisib; first compound 2 µM): 0.882
relative viability (Imatinib + Navitoclax; first compound 0.02 µM): 1.06
relative viability (Imatinib + Navitoclax; first compound 0.2 µM): 0.99
relative viability (Imatinib + Navitoclax; first compound 0.6325 µM): 0.922
relative viability (Imatinib + Navitoclax; first compound 2 µM): 0.947
relative viability (Imatinib + Lapatinib; first compound 0.02 µM): 1.04
relative viability (Imatinib + Lapatinib; first compound 0.2 µM): 1.1
relative viability (Imatinib + Lapatinib; first compound 0.6325 µM): 1.02
relative viability (Imatinib + Lapatinib; first compound 2 µM): 0.99

NCI-H1563
relative viability (Imatinib + Alpelisib; first compound 0.02 µM): 0.966
relative viability (Imatinib + Alpelisib; first compound 0.06325 µM): 0.931
relative viability (Imatinib + Alpelisib; first compound 0.2 µM): 1.03
relative viability (Imatinib + Alpelisib; first compound 0.6325 µM): 0.934
relative viability (Imatinib + Alpelisib; first compound 2 µM): 0.895
relative viability (Imatinib + Luminespib; first compound 0.02 µM): 0.486
relative viability (Imatinib + Luminespib; first compound 0.06325 µM): 0.537
relative viability (Imatinib + Luminespib; first compound 0.2 µM): 0.545
relative viability (Imatinib + Luminespib; first compound 0.6325 µM): 0.496
relative viability (Imatinib + Luminespib; first compound 2 µM): 0.471
relative viability (Imatinib + Lapatinib; first compound 0.02 µM): 1.01
relative viability (Imatinib + Lapatinib; first compound 0.06325 µM): 0.699
relative viability (Imatinib + Lapatinib; first compound 0.2 µM): 0.98
relative viability (Imatinib + Lapatinib; first compound 0.6325 µM): 0.869

NCI-H1650
relative viability (Imatinib + Luminespib; first compound 0.02 µM): 0.189
relative viability (Imatinib + Luminespib; first compound 0.06325 µM): 0.2
relative viability (Imatinib + Luminespib; first compound 0.2 µM): 0.184
relative viability (Imatinib + Luminespib; first compound 0.6325 µM): 0.192
relative viability (Imatinib + Luminespib; first compound 2 µM): 0.193
relative viability (Imatinib + Navitoclax; first compound 0.02 µM): 1.39
relative viability (Imatinib + Navitoclax; first compound 0.06325 µM): 1.35
relative viability (Imatinib + Navitoclax; first compound 0.2 µM): 1.25
relative viability (Imatinib + Navitoclax; first compound 0.6325 µM): 1.31
relative viability (Imatinib + Navitoclax; first compound 2 µM): 1.13
relative viability (Imatinib + Lapatinib; first compound 0.02 µM): 0.797
relative viability (Imatinib + Lapatinib; first compound 0.06325 µM): 0.489
relative viability (Imatinib + Lapatinib; first compound 0.2 µM): 0.845
relative viability (Imatinib + Lapatinib; first compound 0.6325 µM): 0.816
relative viability (Imatinib + Lapatinib; first compound 2 µM): 0.886

NCI-H1703
relative viability (Imatinib + Alpelisib; first compound 0.02 µM): 0.355
relative viability (Imatinib + Alpelisib; first compound 0.06325 µM): 0.259
relative viability (Imatinib + Alpelisib; first compound 0.2 µM): 0.206
relative viability (Imatinib + Alpelisib; first compound 0.6325 µM): 0.242
relative viability (Imatinib + Alpelisib; first compound 2 µM): 0.143
relative viability (Imatinib + Navitoclax; first compound 0.02 µM): 1.39
relative viability (Imatinib + Navitoclax; first compound 0.06325 µM): 1.12
relative viability (Imatinib + Navitoclax; first compound 0.2 µM): 0.586
relative viability (Imatinib + Navitoclax; first compound 0.6325 µM): 0.383
relative viability (Imatinib + Navitoclax; first compound 2 µM): 0.238
relative viability (Imatinib + Lapatinib; first compound 0.02 µM): 1.01
relative viability (Imatinib + Lapatinib; first compound 0.06325 µM): 1.1
relative viability (Imatinib + Lapatinib; first compound 0.2 µM): 0.439
relative viability (Imatinib + Lapatinib; first compound 0.6325 µM): 0.276
relative viability (Imatinib + Lapatinib; first compound 2 µM): 0.281

NCI-H2023
relative viability (Imatinib + Alpelisib; first compound 0.02 µM): 0.633
relative viability (Imatinib + Alpelisib; first compound 0.06325 µM): 0.728
relative viability (Imatinib + Alpelisib; first compound 0.2 µM): 0.653
relative viability (Imatinib + Alpelisib; first compound 0.6325 µM): 0.577
relative viability (Imatinib + Alpelisib; first compound 2 µM): 0.586
relative viability (Imatinib + Luminespib; first compound 0.02 µM): 1.04
relative viability (Imatinib + Luminespib; first compound 0.06325 µM): 1.03
relative viability (Imatinib + Luminespib; first compound 0.2 µM): 1.07
relative viability (Imatinib + Luminespib; first compound 0.6325 µM): 1.17
relative viability (Imatinib + Luminespib; first compound 2 µM): 1.1
relative viability (Imatinib + Navitoclax; first compound 0.02 µM): 1.08
relative viability (Imatinib + Navitoclax; first compound 0.06325 µM): 1.23
relative viability (Imatinib + Navitoclax; first compound 0.2 µM): 1.12
relative viability (Imatinib + Navitoclax; first compound 0.6325 µM): 0.958
relative viability (Imatinib + Navitoclax; first compound 2 µM): 0.898

NCI-H2126
relative viability (Imatinib + Luminespib; first compound 0.02 µM): 0.955
relative viability (Imatinib + Luminespib; first compound 0.2 µM): 0.979
relative viability (Imatinib + Luminespib; first compound 2 µM): 0.959
relative viability (Imatinib + Navitoclax; first compound 0.02 µM): 0.883
relative viability (Imatinib + Navitoclax; first compound 0.2 µM): 0.865
relative viability (Imatinib + Navitoclax; first compound 0.6325 µM): 0.851
relative viability (Imatinib + Navitoclax; first compound 2 µM): 0.824
relative viability (Imatinib + Lapatinib; first compound 0.2 µM): 0.828
relative viability (Imatinib + Lapatinib; first compound 0.6325 µM): 0.684
relative viability (Imatinib + Lapatinib; first compound 2 µM): 0.704

SW 900
relative viability (Imatinib + Luminespib; first compound 0.02 µM): 0.201
relative viability (Imatinib + Luminespib; first compound 0.06325 µM): 0.146
relative viability (Imatinib + Luminespib; first compound 0.2 µM): 0.168
relative viability (Imatinib + Luminespib; first compound 0.6325 µM): 0.175
relative viability (Imatinib + Luminespib; first compound 2 µM): 0.161

— the supplement of paper PMC10307832
